In patent US12590069B2, “Crystalline salts of a plasma kallikrein inhibitor” (BioCryst Pharmaceuticals, Inc., priority 2018, dated 2026):
Structures can show the parent of a compound that is named as a salt.

How the values were obtained:
arthritis = details: rat models of arthritis; cited from earlier work
[1] = test system: hereditary angioedema (HAE); details: HAE patients; cited from earlier work
[2] = test system: lipopolysaccharide (LPS)- or bacterial-induced sepsis; details: LPS- or bacterial-induced sepsis in animals; cited from earlier work
[3] = Phase I multiple ascending oral dose pharmacokinetics in healthy subjects (plasma, LC-MS/MS); format: in vivo, human; details: for Ctau (trough plasma concentration at end of dosing interval) / Cmax / AUC / Tmax: healthy subjects; for Ctau (trough plasma concentration at end of dosing interval) / Cmax / AUC: geometric mean; for Cmax / AUC / Tmax: human, plasma, po; for Tmax: median
Description: As part of a Phase I, double-blind, placebo-controlled dose-ranging study, the pharmacokinetics of multiple ascending oral doses of Compound I·2 (HCl) were evaluated in healthy subjects. Four ascending dose cohorts were enrolled for dosing in a sequential manner. At the start, twelve subjects were randomized into each cohort for administration of a 7-day or 14-day course of study drug (n=10/cohort received Compound I·2 (HCl) and n=2/cohort received matching placebo) according to the following dose regimens: 125 mg Compound I·2 (HCl) or placebo once per day (QD) for 7 days in Cohort 1; 250 mg Compound I·2 (HCl) or placebo QD for 7 days in Cohort 2; 500 mg Compound I·2 (HCl) or placebo QD for 7 days in Cohort 3; […] Overall, 37 out of the 40 subjects receiving multiple doses of Compound I·2 (HCl) completed their respective dose regimens and were available for assessment of PK parameters at either Day 7 or Day 14.
Serial blood samples were drawn for pharmacokinetic analysis before dose administration on Day 7 or Day 14, and over the following 24 hours. The plasma samples for determination of Compound I·2 (HCl) concentrations were analyzed with the use of a validated LC-MS/MS (Liquid Chromatography with tandem mass spectrometry) bioanalytical assay.
Plasma Compound I·2 (HCl) concentration versus time profiles on Day 7 after QD oral administration of Compound I·2 (HCl) at 125, 250, and 500 mg QD, and on Day 14 after QD oral administration of Compound I·2 (HCl) at 350 mg QD, are shown in FIG. 3.
Table 1 provides a summary of plasma pharmacokinetic parameters [the maximum (peak) plasma drug concentration (Cmax), time (observed time point) to reach maximum (peak) plasma drug concentration following drug administration (Tmax), the observed trough plasma concentration at the end of the dosing interval (Ctau), and the area under the plasma concentration-time curve over the dosing interval (AUCtau)] following 7 or 14 days of multiple oral doses of Compound I·2 (HCl).

sepsis = details: cited from earlier work
[4] = test system: middle cerebral artery occlusion (MCAO); details: mouse MCAO model; cited from earlier work
[5] = across the full 4-fold dose range (125 mg to 500 mg QD)
[6] = 125 mg, 125 mg QD oral, Day 7 (N = 10)
[7] = 350 mg, 350 mg QD oral, Day 14 (N = 9)
[8] = 350 mg, third dose column, 350 mg QD, Day 7 (N = 9), oral
[9] = 500 mg, second dose column, 500 mg QD, Day 7 (N = 9), oral

Question: With `Cl.NCC1CCC(C(=O)N[C@@H](Cc2ccccc2)C(=O)Nc2ccc(CC(=O)O)cc2)CC1` (stereo partly drawn) [PKSI-527] as the molecule, how does the Joint swelling (arthritis) read?
Answer: The Joint swelling was “reduce joint swelling”.

Question: For `NC(N)=NCCC[C@@H](N)C(=O)N[C@@H](CCCN=C(N)N)C(=O)N1CCC[C@H]1C(=O)N1C[C@H](O)C[C@H]1C(=O)NCC(=O)N[C@@H](Cc1cccs1)C(=O)N[C@@H](CO)C(=O)N1Cc2ccccc2C[C@@H]1C(=O)N1[C@H](C(=O)N[C@@H](CCCN=C(N)N)C(=O)O)C[C@@H]2CCCC[C@@H]21` [Icatibant], which “Efficacy in treating HAE” value [1] is on record?
Answer: The value was “effective in treating HAE”.

Question: Which “Vascular permeability in multiple organs and lesions” value [2] does the source give for “H-D-Pro-Phe-Arg-chloromethylketone [H-D-Pro-Phe-Arg-chloromethylketone (CMK), reference compound]” here?
Answer: The value was “reduce vascular permeability in multiple organs and reduce lesions”.

Question: With `N#Cc1cccc([C@@H](NCC2CC2)c2ccc(F)c(NC(=O)c3cc(C(F)(F)F)nn3-c3cccc(CN)c3)c2)c1` [Compound I•2(HCl)] as the molecule, how does the “Ctau (trough plasma concentration at end of dosing interval)” value ([3]; 125 mg QD oral, Day 7 (N = 10)) read?
Answer: Its value is 46.1 ng/mL.

Question: What about the “Increase in geometric mean AUCtau” value [3, 5] of the same molecule?
Answer: Its value is 5.1 fold.

Question: And the “Increase in geometric mean Cmax” value [3, 5]?
Answer: The value was 5.3 fold.

Question: What about the Cmax [3, 6] of the same molecule?
Answer: The Cmax was 97.8 ng/mL.

Question: What about the AUC [3, 6] of the same molecule?
Answer: Its AUC is 1600 ng·h/mL.

Question: And the Tmax [3, 6]?
Answer: Its Tmax is 5 h.

Question: And the Cmax [3, 7]?
Answer: The Cmax was 363 ng/mL.

Question: What about the AUC [3, 7] of the same molecule?
Answer: Its AUC is 5720 ng·h/mL.

Question: And the Cmax [3, 8]?
Answer: The Cmax was 517 ng/mL.

Question: What about the AUC [3, 8] of the same molecule?
Answer: Its AUC is 8230 ng·h/mL.

Question: And the Cmax [3, 9]?
Answer: The Cmax was 217 ng/mL.

Question: What about the AUC [3, 9] of the same molecule?
Answer: The AUC was 3710 ng·h/mL.

Question: And the Tmax [3, 9]?
Answer: Its Tmax is 6 h.

Question: What about the “Dose proportionality of exposure” value ([3]; increase from 125 mg to 250 mg QD and 250 mg to 500 mg QD) of the same molecule?
Answer: Its value is “reasonable dose proportionality”.

Question: And the “Ctau (trough plasma concentration at end of dosing interval)” value ([3]; second dose column, 500 mg QD, Day 7 (N = 9), oral)?
Answer: The value was 101 ng/mL.

B1: C1-inhibitor: physiological inhibitor of kallikrein in human plasma (protein, UniProt P05155 23-500, looked up)
Plasma protease C1 inhibitor: NPNATSSSSQDPESLQDRGEGKVATTVISKMLFVEPILEVSSLPTTNSTTNSATKITANTTDEPTTQPTTEPTTQPTIQPTQPTTQLPTDSPTQPTTGSFCPGPVTLCSDLESHSTEAVLGDALVDFSLKLYHAFSAMKKVETNMAFSPFSIASLLTQVLLGAGENTKTNLESILSYPKDFTCVHQALKGFTTKGVTSVSQIFHSPDLAIRDTFVNASRTLYSSSPRVLSNNSDANLELINTWVAKNTNNKISRLLDSLPSDTRLVLLNAIYLSAKWKTTFDPKKTRMEPFHFKNSVIKVPMMNSKKYPVAHFIDQTLKAKVGQLQLSHNLSLVILVPQNLKHRLEDMEQALSPSVFKAIMEKLEMSKFQPTLLTLPRIKVTTSQDMLSIMEKLEFFDFSYDLNLCGLTEDPDLQVSAMQHQTVLELTETGVEAAAASAISVARTLLVFEVQQPFLFVLWDQQHKFPVFMGRVYDPRA
Question: What does the source list for B1?
Answer: Clinical outcome in sepsis patients (sepsis): Clinical improvement; Infarct size [4]: reduced infarct size; Vascular permeability in multiple organs and lesions [2]: reduce vascular permeability in multiple organs and reduce lesions
